This assay addresses T1, abc isoform of human TMEM16A channel expressed in CHO cells (Homo sapiens, UniProt Q5XXA6, DEL476-501).
T1 construct: expressed in transfected cells; host or cells: CHO cells, doxycycline-inducible expression under Blasticidin/Zeocin selection
T1 sequence (Q5XXA6 with tags, fused parts or gaps isoform Q5XXA6-5 DEL539-564): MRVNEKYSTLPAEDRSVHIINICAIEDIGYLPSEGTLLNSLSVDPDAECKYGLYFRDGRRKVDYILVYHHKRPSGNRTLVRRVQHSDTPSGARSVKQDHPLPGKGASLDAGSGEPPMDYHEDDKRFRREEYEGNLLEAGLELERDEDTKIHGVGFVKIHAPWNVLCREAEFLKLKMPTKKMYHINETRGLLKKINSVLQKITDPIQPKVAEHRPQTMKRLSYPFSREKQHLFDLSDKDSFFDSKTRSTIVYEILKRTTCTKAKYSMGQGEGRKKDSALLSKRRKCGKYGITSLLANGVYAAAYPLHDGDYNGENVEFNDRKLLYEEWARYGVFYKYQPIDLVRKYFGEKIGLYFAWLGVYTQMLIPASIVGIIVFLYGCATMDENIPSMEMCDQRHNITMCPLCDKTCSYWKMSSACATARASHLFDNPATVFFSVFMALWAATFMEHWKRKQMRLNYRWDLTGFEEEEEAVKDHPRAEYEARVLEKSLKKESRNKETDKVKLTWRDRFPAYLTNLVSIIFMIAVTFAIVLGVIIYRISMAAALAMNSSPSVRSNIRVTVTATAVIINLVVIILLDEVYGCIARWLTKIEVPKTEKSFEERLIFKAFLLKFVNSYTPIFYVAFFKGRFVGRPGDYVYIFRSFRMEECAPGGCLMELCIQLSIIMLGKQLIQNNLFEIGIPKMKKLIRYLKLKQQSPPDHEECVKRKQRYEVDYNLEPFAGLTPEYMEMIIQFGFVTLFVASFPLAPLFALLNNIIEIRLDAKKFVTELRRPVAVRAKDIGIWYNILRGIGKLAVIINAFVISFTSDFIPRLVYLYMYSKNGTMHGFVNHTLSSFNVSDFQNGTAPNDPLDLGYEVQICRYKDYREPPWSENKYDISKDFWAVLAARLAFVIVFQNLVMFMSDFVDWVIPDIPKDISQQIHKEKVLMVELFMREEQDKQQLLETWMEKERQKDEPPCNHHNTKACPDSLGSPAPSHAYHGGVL
The experiment in a line: Automated patch clamping (QPatch) assay to measure TMEM16A activity in whole-cell. The format is cell-based. The note with it: for EC50: CHO cells expressing human TMEM16A (abc), whole-cell automated patch clamp, Hill fit, read-out: TMEM16A QPATCH assay EC50 V3 EC50; for Emax: CHO, read-out: TMEM16A QPATCH assay EC50 V3 Assay Window (% TMEM16A max activation); for Emax / TMEM16A QPATCH assay EC50 V3 Assay Window (% TMEM16A max activation): maximum current at highest dose relative to reference potentiator at maximal concentration (upper limit) and vehicle (lower limit). A digest of the protocol: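 CHO cells with doxycycline-induced (1 μg/mL, 18-24 h) human TMEM16A abc isoform; QPatch whole-cell recording, hold −70 mV, step +70 mV 1500 ms, then −90 to +70 mV ramp. Compounds in 0.3% DMSO; EC50 by Hill fit; % max activation relative to vehicle baseline and reference potentiator maximum.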
(In general: In patch-clamp work, channel activity is measured electrically.)

SMILES strings stand for the structures. Structures can show the parent of a compound that is named as a salt.

`O=C(NC(C1CC1)C1CC1)c1nnc(-c2cccc(-c3ncc(C(=O)NC(C4CC4)C4CC4)o3)c2)[nH]1` [Example 12.8, N-(Dicyclopropylmethyl)-2-(3-(5-((Dicyclopropylmethyl)Carbamoyl)-4H-1,2,4-Triazol-3-Yl)Phenyl)Oxazole-5-Carboxamide]: the EC50 was 20 nM and the Emax was determined as 119%.

`CCOC(=O)[C@H](NC(=O)c1cc(-c2cccc(-c3ncc(C(=O)NC(CC)CC)o3)c2)[nH]n1)c1ccccc1` [Example 3.59, (R)-Ethyl 2-(5-(3-(5-(Pentan-3-Ylcarbamoyl)Oxazol-2-Yl)Phenyl)-1H-Pyrazole-3-Carboxamido)-2-Phenylacetate Trifluoroacetate]: the EC50 came out at 60 nM and the Emax was found to be 106%.

`CCCC(CCC)NC(=O)c1cc(-c2cccc(-c3ncc(C(=O)NC(CC)CC)o3)c2)[nH]n1` [Example 3.2, 2-(3-(3-(Heptan-4-Ylcarbamoyl)-1 H-Pyrazol-5-Yl)Phenyl)-N-(Pentan-3-yl)Oxazole-5-Carboxamide]: the EC50 was 30 nM and the Emax was 90%.

For `CCC(CC)NC(=O)c1cnc(-c2cccc(-c3cc(C(=O)N[C@@H](C)C4CC4)n(CC(O)C(F)(F)F)n3)c2)o1` (stereo partly drawn) [Example 9.1, 2-(3-(5-(((S)-1-Cyclopropylethyl)Carbamoyl)-1-(3,3,3-Trifluoro-2-Hydroxypropyl)-1H-Pyrazol-3-Yl)Phenyl)-N-(Pentan-3-Yl)Oxazole-5-Carboxamide], the EC50 was found to be 80 nM and the Emax came out at 155%.

`CCC(CC)NC(=O)c1cnc(-c2cccc(-c3cc(C(=O)NC(C4CC4)C4CCCO4)n[nH]3)c2)o1` (single isomer, unassigned) [Example 3.4 (iv), 2-(3-(3-((Cyclopropyl(Tetrahydrofuran-2-Yl)Methyl)Carbamoyl)-1H-Pyrazol-5-Yl)Phenyl)-N-(Pentan-3-Yl)Oxazole-5-Carboxamide]: the EC50 was 380 nM and the “TMEM16A QPATCH assay EC50 V3 Assay Window (% TMEM16A max activation)” value is given as 73%.

On to `CCC(CC)NC(=O)c1cc(-c2cccc(-c3ncc(C(=O)Nc4cccc(Cl)c4)o3)c2)[nH]n1` [Example 1.33, N-(3-Chlorophenyl)-2-(3-(3-(Pentan-3-Ylcarbamoyl)-1H-Pyrazol-5-yl)Phenyl)Oxazole-5-Carboxamide], for which the EC50 came out at 720 nM and the Emax was 66%.

`CCOC(=O)[C@H](CCSC)NC(=O)c1cnc(-c2cccc(-c3cc(C(=O)NC(CC)CC)n[nH]3)c2)o1` [Example 1.14, (S)-Ethyl 4-(Methylthio)-2-(2-(3-(3-(Pentan-3-Ylcarbamoyl)-1H-Pyrazol-5-yl)Phenyl)Oxazole-5-Carboxamido)Butanoate]: the EC50 was 680 nM and the Emax stood at 111%.

As to `CCC(CC)NC(=O)c1cnc(-c2cccc(-c3cc(C(=O)NCCSC(C)(C)C)n[nH]3)c2)o1` [Example 3.23, 2-(3-(3-((2-(Tert-Butylthio)Ethyl)Carbamoyl)-1H-Pyrazol-5-Yl)Phenyl)-N-(Pentan-3-Yl)Oxazole-5-Carboxamide], the EC50 amounted to 130 nM and the Emax was 79%.

For the compound `CCC(CC)NC(=O)c1cc(-c2cccc(-c3ncc(C(=O)N[C@H](C(=O)OC(C)(C)C)C(C)C)o3)c2)[nH]n1` [Example 1.9, (S)-Tert-Butyl 3-Methyl-2-(2-(3-(3-(Pentan-3-Ylcarbamoyl)-1H-Pyrazol-5-yl)Phenyl)Oxazole-5-Carboxamido)Butanoate], the EC50 amounted to 30 nM and the Emax was 146%.

In the case of `C[C@H](NC(=O)c1cc(-c2cccc(-c3ncc(C(=O)NC(C4CC4)C4CC4)o3)c2)nn1CC(O)C(F)(F)F)C1CC1` (single isomer, unassigned) [Example 9.2 (ii)], the EC50 was 40 nM and the “TMEM16A QPATCH assay EC50 V3 Assay Window (% TMEM16A max activation)” value was 83%.

With `CCC(CC)NC(=O)c1cnc(-c2cccc(-c3nnc(C(=O)N[C@@H](C)C4CC4)[nH]3)c2)o1` [Example 14.0, (S)-2-(3-(5-((1-Cyclopropylethyl)Carbamoyl)-4H-1,2,4-Triazol-3-Yl)Phenyl)-N-(Pentan-3-Yl)Oxazole-5-Carboxamide], the half-maximal effective concentration (EC50) was determined as 580 nM and the Emax amounted to 177%.

Turning to `CCOC(=O)[C@@H](NC(=O)c1cnc(-c2cccc(-c3cc(C(=O)NC(C4CC4)C4CC4)n(CC(C)(C)O)n3)c2)o1)C(C)C` [Example 9.6, (S)-Ethyl 2-(2-(3-(5-((Dicyclopropylmethyl)Carbamoyl)-1-(2-Hydroxy-2-Methylpropyl)-1 H-Pyrazol-3-Yl)Phenyl)Oxazole-5-Carboxamido)-3-Methylbutanoate], the EC50 stood at 30 nM and the Emax worked out at 100%.

In the case of `CCC(CC)NC(=O)c1cnc(-c2cccc(-c3nc(C(=O)NC(CC)CC)n(CC(=O)OC(C)(C)C)n3)c2)o1` [Example 15.10, Tert-Butyl 2-(5-(Pentan-3-Ylcarbamoyl)-3-(3-(5-(Pentan-3-Ylcarbamoyl)Oxazol-2-Yl)Phenyl)-1H-1,2,4-Triazol-1-Yl)Acetate], the EC50 was 80 nM and the Emax came out at 73%.

Turning to `CCC(CC)NC(=O)c1cnc(-c2cccc(-c3cc(C(=O)N4CCCC(C)(C)C4)n[nH]3)c2)o1` [Example 3.15, 2-(3-(3-(3,3-Dimethylpiperidine-1-Carbonyl)-1H-Pyrazol-5-Yl)Phenyl)-N-(Pentan-3-Yl)Oxazole-5-Carboxamide], the EC50 came to 200 nM and the Emax was 72%.

As to `CCOC(=O)[C@@H](NC(=O)c1cc(-c2cccc(-c3ncc(C(=O)N[C@H](C(=O)OCC)C(C)C)o3)c2)[nH]n1)C(C)C` [Example 2.2, (S)-Ethyl 2-(2-(3-(3-(((S)-1-Ethoxy-3-Methyl-1-Oxobutan-2-Yl)Carbamoyl)-1 H-Pyrazol-5-Yl)Phenyl)Oxazole-5-Carboxamido)-3-Methylbutanoate], the concentration giving a half-maximal response (EC50) worked out at 32 nM and the Emax came to 112%.

As to `CCC(CC)NC(=O)c1cnc(-c2cccc(-c3cn(CC(O)C(F)(F)F)c(C(=O)N[C@@H](C)C4CC4)n3)c2)o1` (stereo partly drawn) [Example 17.0, 2-(3-(2-(((S)-1-Cyclopropylethyl)Carbamoyl)-1-(3,3,3-Trifluoro-2-Hydroxypropyl)-1H-Imidazol-4-Yl)Phenyl)-N-(Pentan-3-Yl)Oxazole-5-Carboxamide], the EC50 was 790 nM and the Emax was found to be 186%.

As to `CCC(CC)NC(=O)c1cnc(-c2cccc(-c3nc(C(=O)NC(CC)CC)n(CCN4CCCCC4)n3)c2)o1` [Example 15.0, N-(Pentan-3-Yl)-2-(3-(5-(Pentan-3-Ylcarbamoyl)-1-(2-(Piperidin-1-Yl)Ethyl)-1H-1,2,4-Triazol-3-Yl)Phenyl)Oxazole-5-Carboxamide], the half-maximal effective concentration (EC50) stood at 420 nM and the Emax is 161%.

Consider `CCC(CC)NC(=O)c1cc(-c2cccc(-c3ncc(C(=O)N[C@@H](COC(C)(C)C)C(=O)OC(C)(C)C)o3)c2)[nH]n1` [Example 1.50, (S)-Tert-Butyl 3-(Tert-Butoxy)-2-(2-(3-(3-(Pentan-3-Ylcarbamoyl)-1H-Pyrazol-5-Yl)Phenyl)Oxazole-5-Carboxamido)Propanoate Trifluoroacetate], for which the EC50 was 450 nM and the Emax was 115%.

On to `C[C@H](NC(=O)c1nnc(-c2cccc(-c3ncc(C(=O)N[C@H](C)C4CC4)o3)c2)[nH]1)C1CC1` [Example 12.1, N-((R)-1-Cyclopropylethyl)-2-(3-(5-(((S)-1-Cyclopropylethyl)Carbamoyl)-4H-1,2,4-Triazol-3-Yl)Phenyl)Oxazole-5-Carboxamide], for which the EC50 stood at 270 nM and the Emax came out at 80%.

For `CCC(CC)NC(=O)c1cnc(-c2cccc(-c3cc(C(=O)N[C@H](C(=O)OC)C(C)C)n[nH]3)c2)o1` [Example 3.41, (S)-Methyl 3-Methyl-2-(5-(3-(5-(Pentan-3-Ylcarbamoyl)Oxazol-2-Yl)Phenyl)-1H-Pyrazole-3-Carboxamido)Butanoate], the EC50 amounted to 130 nM and the Emax was 89%.

On to `C[C@H](NC(=O)c1cc(-c2cccc(-c3ncc(C(=O)N[C@H](C)C4CC4)o3)c2)[nH]n1)C1CC1` [Example 1.8, N-((R)-1-Cyclopropylethyl)-2-(3-(3-(((S)-1-Cyclopropylethyl)Carbamoyl)-1H-Pyrazol-5-Yl)Phenyl)Oxazole-5-Carboxamide], for which the EC50 is 170 nM and the Emax was determined as 54%.

For orientation: EC50 means the concentration at which the effect is half-maximal.
